Reference: patent publication US9663514B2 (Takeda Pharmaceutical Company Limited, priority 2011, dated 2017)
pIC50: −log10 of the molar value.

Molecular target: T1, SYK (Homo sapiens, UniProt P43405)
T1 construct: The SYK kinase domain (residues 356-635) is amplified via PCR; made in house; host or cells: Sf9 insect cells (baculovirus, pFastBac1)
Assay: SYK inhibition: in vitro assay of SYK-mediated phosphorylation of FAM-labeled substrate (Caliper LC-3000)
Type: biochemical
Conditions: SYK kinase domain (residues 356-635); 2.4 nM SYK and 45 μM ATP, 3 μM 5FAM-KKKKEEIYFFFG-NH2, RT 60 min, pH 7.3; pIC50 = −log(IC50), IC50 molar
Experimental: The ability of compounds to inhibit SYK activity may be assessed using a variety of methods, including in vitro and in vivo assays. The following in vitro assay measures a test compound's ability to inhibit SYK-mediated phosphorylation of a FAM-labeled SYK-specific substrate (5FAM-KKKKEEIYFFFG-NH2).
SYK protein is prepared from cDNA encoding human spleen tyrosine kinase and is expressed in insect cells using a baculovirus expression vector. The cDNA (IMAGE: 3542895) is purchased from Open Biosystems. The SYK kinase domain (residues 356-635) is amplified via PCR and cloned into plasmid pFastBacl (Invitrogen) at BamHI/XbaI sites. Recombinant plasmid encoding Met-Ala-Lys-SYK(356-635)-HHHHHH is sequenced and transformed into E. coli DH10Bac strain. The recombinant bacmid DNA is isolated and transfected into Sf9 insect cells. Recombinant virus is harvested 72 h after transfection. High titer viral stock is prepared by infecting Sf9 cells at a multiplicity of infection (MOI) of approximately 0.01. A suspension of Sf9 cells (10 L) is infected with recombinant virus (MOI=5) and is incubated in a Wave Bioreactor (GE-Healthcare) for 48 h. The cells are harvested and stored at −80° C.
To purify the expressed protein, the frozen Sf9 cells (10 L) are broken into small (<1 cm) particles and suspended in a lysis buffer (300 mL) containing 20 mM Tris (pH 7.6), 0.25 mM TCEP, 100 mM NaCl, 5% glycerol and a protease inhibitor. The suspension is stirred at RT until completely thawed, lysed an additional 2-4 min on a rotary blade homogenizer, and then centrifuged at 4200 g for 1 h. Following centrifugation, the supernatant is poured through cheese cloth and combined with a nickel chelating resin (Probond Resin™, Invitrogen) which is pre-equilibrated in a wash buffer containing 10 mM Tris (pH 7.6), 0.25 mM TCEP, 300 mM NaCl, 5% glycerol, and 20 mM imidazole. The mixture is agitated for 3 h in a cold room and then centrifuged at 900 g for 10 min. The resin is dispersed in wash buffer (50 mL), centrifuged for 10 min at 900 g, re-dispersed in a small amount of wash buffer (5 mL), and then pour into a disposable Poly-Prep chromatography column, through which wash buffer is passed by gravity until no protein is observed in coomassie buffer (about 120 mL of wash buffer). An elution buffer (30 mL) containing 10 mM HEPES (pH 7.4), 150 mM NaCl, 10% glycerol, 5 mM DTT, and 400 mM imidazole is used to elute the SYK protein from the resin. The eluate is concentrated (5 mL) and further purified on a Superdex 200 column (1.2 mL/min for 160 min, 10 mM HEPES (pH 7.4), 10 mM NaCl, 10 mM MgCl, 0.1 mM EDTA, and 0.25 mM TCEP). The chromatographed fractions are run on SDS-PAGE and the requisite fractions are pooled and concentrated. Final delivery buffer is 10 mM HEPES (pH 7.4), 10 mM Methione, 150 mM NaCl, 10% glycerol, 5 mM DTT.
SYK inhibition is determined using a black 384 well plate format in buffer containing 50 mM HEPES, 10 mM NaCl, 10 mM MgCl2, 0.2 mM EDTA, 0.01% EDA (Brij®35), 1 mM DTT, and 0.1 mg/ml BSA at pH 7.3. Each test compound is prepared in DMSO using 2-fold serial dilutions for 11 data points, which are added to the buffer so that each dilution contains 3% DMSO. To each well is added 2 μL of 3 μM SFAM-KKKKEEIYFFFG-NH2 (in buffer), 2 μL of diluted test compound (3% DMSO in buffer), and 2 μL of 2.4 nM SYK and 45 μM ATP (in buffer). The reaction mixture is incubated at RT for 60 min, and quenched by adding 50 mM Hepes, 30 mM EDTA, 0.1% Triton X-100 (pH 7.3). To quantify the fluorescent-labeled substrate and product following reaction, the test plate is loaded on a Caliper LC-3000, which measures percent of conversion by microfluidic-based separation. Corresponding IC50 values are calculated by non-linear curve fitting of the compound concentrations and percent of inhibition to the standard IC50 equation and reported as pIC50, i.e., −log(IC50), where IC50 is molar concentration.

| SMILES | pIC50 |
| --- | --- |
| Cc1ccn2ncc(-c3nc(N[C@@H]4CCCC[C@@H]4N)c(F)c4c3C(=O)N[C@H]4C)c2c1 [Example 55, (S)-6-(((1R,2S)-2-Aminocyclohexyl)amino)-7-fluoro-1-methyl-4-(5-methylpyrazolo[1,5-a]pyridin-3-yl)-1H-pyrrolo[3,4-c]pyridin-3(2H)-one] | 6.60 |
| N[C@H]1COCC[C@H]1Nc1nc(-c2cc3cnccc3s2)c2c(c1F)CNC2=O [Example 17, 6-((3R,4R)-3-Aminotetrahydro-2H-pyran-4-ylamino)-7-fluoro-4-(thieno[3,2-c]pyridin-2-yl)-1H-pyrrolo[3,4-c]pyridin-3(2H)-one] | 9.60 |
| N[C@H]1COCC[C@H]1Nc1nc(/C=C/c2ccc(F)cc2)c2c(c1F)CNC2=O [Example 46, 6-((3R,4R)-3-Aminotetrahydro-2H-pyran-4-ylamino)-7-fluoro-4-(4-fluorostyryl)-1H-pyrrolo[3,4-c]pyridin-3(2H)-one] | 8.30 |
| CCn1cc(-c2nc(N[C@@H]3CCOC[C@@H]3N)c(F)c3c2C(=O)NC3)cn1 [Example 38, 6-((3R,4R)-3-Aminotetrahydro-2H-pyran-4-ylamino)-4-(1-ethyl-1H-pyrazol-4-yl)-7-fluoro-1H-pyrrolo[3,4-c]pyridin-3(2H)-one] | 7.70 |
| N[C@H]1CCCC[C@H]1Nc1nc(-c2cc3ccc(F)cc3s2)c2c(c1F)CNC2=O [Example 20] | 9.60 |
| N#Cc1ccc2sc(-c3nc(N[C@@H]4CCCC[C@@H]4N)c(F)c4c3C(=O)NC4)cc2c1 [Example 22, 2-(6-((1R,2S)-2-Aminocyclohexylamino)-7-fluoro-3-oxo-2,3-dihydro-1H-pyrrolo[3,4-c]pyridin-4-yl)benzo[b]thiophene-5-carbonitrile] | 9.90 |
| CCc1cc(-c2nc(N[C@@H]3CCCC[C@@H]3N)c(F)c3c2C(=O)NC3)sn1 [Example 3, 6-((1R,2S)-2-Aminocyclohexylamino)-4-(3-ethylisothiazol-5-yl)-7-fluoro-1H-pyrrolo[3,4-c]pyridin-3 (2H)-one] | 8.90 |
| N#Cc1ccc2sc(-c3nc(N[C@@H]4CCOC[C@@H]4N)c(F)c4c3C(=O)NC4)cc2c1 [Example 21, 2-(6-((3R,4R)-3-Aminotetrahydro-2H-pyran-4-ylamino)-7-fluoro-3-oxo-2,3-dihydro-1H-pyrrolo[3,4-c]pyridin-4-yl)benzo[b]thiophene-5-carbonitrile] | 9.50 |
| N[C@H]1COCC[C@H]1Nc1nc(-c2cc3cc(C(=O)O)ccn3c2)c2c(c1F)CNC2=O [Example 40, 2-(6-((3R,4R)-3-Aminotetrahydro-2H-pyran-4-ylamino)-7-fluoro-3-oxo-2,3-dihydro-1H-pyrrolo[3,4-c]pyridin-4-yl)indolizine-7-carboxylic acid] | 9.70 |
| N[C@H]1CCCC[C@H]1Nc1nc(-c2cc3c(F)cccc3s2)c2c(c1F)CNC2=O [Example 24, 6-((1R,2S)-2-Aminocyclohexylamino)-7-fluoro-4-(4-fluorobenzo[b]thiophen-2-yl)-1H-pyrrolo[3,4-c]pyridin-3(2H)-one] | 9.40 |
| N[C@H]1CCCC[C@H]1Nc1nc(/C=C/c2ccc(Cl)cc2)c2c(c1F)CNC2=O [Example 50, 6-((1R,2S)-2-Aminocyclohexylamino)-4-(4-chlorostyryl)-7-fluoro-1H-pyrrolo[3,4-c]pyridin-3(2H)-one] | 8.70 |
| N[C@H]1CCCC[C@H]1Nc1nc(-c2cc(F)cs2)c2c(c1F)CNC2=O [Example 28, 6-((1R,2S)-2-Aminocyclohexylamino)-7-fluoro-4-(4-fluorothiophene-2-yl)-1H-pyrrolo[3,4-c]pyridin-3(2H)-one] | 8.80 |
